Measured values from patent publication US9150553B2, “Carboxamide compounds and their use as calpain inhibitors” (AbbVie Deutschland GmbH & Co. KG, priority 2007, dated 2015).
Values joined by “and” are separate entries in the source; they are usually repeats but may differ in a detail not shown here. Equal values may be shown once.

Experiment: In vivo pharmacokinetic profile after oral dosing in rats (plasma, LC-MS)
Design: species or system Sprague-Dawley rats
Settings: plasma prodrug I-2 after oral 10 mg/kg of prodrug example 2, male rats, lines = rat 1, 2, 3 and mean
Description: The compound described in example 2 was prepared as a solution (20% EtOH, 40% PEG400, qc. Ampuwa) at a concentration appropriate for a 10 mg/kg (5 mL/kg) oral dose.
Three male Sprague-Dawley rats (200-300 g; Elevage Janvier, France) were used in this study. Due to size, each rat was housed in Macrolon Type 111 cages under conventional barrier conditions. The animals were fasted overnight prior to dosing and throughout the duration of the study but were permitted water ad libitum and were permitted food typically six hours postdosing. Control animals were placed under deep isoflurane anesthia and euthanized by bleeding (cardiac puncture) and their tissues removed and used as blank standards during sample analysis.
The group contained three rats. The group of rats received a 10 mg/kg (5 mL/kg) dose orally by gavage. At the conclusion of the study, rats were euthanized by bleeding (cardiac puncture) under deep isoflurane anesthesia.
Potassium-EDTA blood samples (approx. 200-300 μl) were withdrawn from the tail vein of each animal by butterfly catheter 0.25, 0.5, 1, 1.5, 2, 3, 4, 6, 8 and 24 hours after drug administration. Upon collection, the samples were promptly placed in an ice bath, and within 2 hours after sample collection they were centrifuged at about 4° C. Upon completion of the study, animals were put under deep anesthesia using isoflurane and euthanized by bleeding (cardiac puncture). The resulting plasma samples were placed in clean PP-tubes and stored in a freezer until analysis.
The plasma samples were assayed for the compound I and corresponding drug II using appropriate liquid chromatography mass spectrometry procedures.
Peak plasma concentrations (Cmax) and the time to peak plasma concentration (Tmax) were read directly from the plasma concentration data for each rat. The drug and the prodrug plasma concentration data were submitted to multi-exponential curve fitting using WinNonlin. The area under the plasma concentration-time curve from 0 to t hours (time of the last measurable plasma concentration) after dosing (AUC0-t) was calculated using the linear trapezoidal rule for the plasma concentration-time profiles. The residual area extrapolated to infinity, determined as the final measured plasma concentration (Ct) divided by the terminal elimination rate constant (B), was added to AUC0-t to produce the total area under the curve (AUC0-∞). The apparent total plasma clearance (CLp) was calculated by dividing the administered dose by the AUC0-∞. The initial volume of distribution (Vc) was calculated as the dose divided by the extrapolated concentration at time=0 (C0). […] The bioavailability was calculated as the dose-normalized AUC0∞, from the oral dose divided by the corresponding value derived from an intravenous dose.

[1] = male, Sprague-Dawley, rat, plasma, po, 10 mg/kg

AUC [1]: 1700 ng·h/mL
Tmax [1]: 18 min
prodrug Tmax: 30 min
Compound: NC(=O)C1(C(Cc2ccccc2)NC(=O)c2cccnc2-n2ccc(-c3cccc(C(F)(F)F)c3)n2)OCCO1 (stereo not shown) [Compound I-2, N-{1-[2-(Aminocarbonyl)-1,3-dioxolan-2-yl]-2-phenylethyl}-2-{3-[3-(trifluoromethyl)phenyl]-1H-pyrazol-1-yl}nicotinamide]
prodrug AUC: 1315 ng·h/mL and 1485 ng·h/mL and 2297 ng·h/mL
